From patent US20090117140A1, “Human papilloma virus dominant CD4 T cell epitopes and uses thereof” (priority 2007, published 2009)
Entries after “also recorded” stand apart in the source; their conditions may differ.

Assays:
[1] = tested on: E7 56-70 specific T-cell clones from subject 15-04; test: Enzyme-linked immunospot assays defining the core sequence of the CD4 T-cell epitope; conditions: for Response (spot-forming units) among the six overlapping 10-mer peptides: FIG. 3A, three of the four T-cell clones tested; for Response (spot-forming units) among the six overlapping 10-mer peptides / Number of spot-forming units, 15-mer, 11-mer, 10-mer and 9-mer peptides compared: peptide concentration 10 μM; for Number of spot-forming units, 15-mer, 11-mer, 10-mer and 9-mer peptides compared: FIG. 3B; for Number of spot-forming units with serially diluted peptides: FIG. 3C, clones #45 and #207
[2] = tested on: Human Leukocyte Antigen class II molecule; test: Enzyme-linked immunospot assay identifying the restricting Human Leukocyte Antigen molecule; conditions: allogeneic B-lymphoblastoid cell line cells sharing class II molecules with subject 15-04, E7 56-70 peptide used in the assay
[3] = tested on: Human Leukocyte Antigen molecule; conditions: from the literature; cited from earlier work
[4] = tested on: T-cell clones from subject 15-04; test: Enzyme-linked immunospot assay for exogenous presentation (pulsed autologous dendritic cells); conditions: FIG. 2B; clones #11, #207, #304; 2.5×10^3 dendritic cells per well

Row | Molecule | Number of spot-forming units, 15-mer, 11-mer, 10-mer and 9-mer peptides compared [1] | Restriction element of described epitope [3] | further results
1 | CCKCDSTLRL (E7 58-67 peptide from immunodominant epitope region of Human Papilloma Virus 16 E7 protein) | Equally large numbers of spot-forming units; also recorded: equally high number of spot-forming units |  | Response (spot-forming units) among the six overlapping 10-mer peptides [1]: strongest response; also recorded: highest number of spot-forming units; Number of spot-forming units with serially diluted peptides [1]: equivalent numbers of spot forming units; also recorded: equivalent numbers of spot-forming units
2 | CCKCDSTLRLC (E7 58-68 peptide from immunodominant epitope region of Human Papilloma Virus 16 E7 protein) | Equally large numbers of spot-forming units; also recorded: equally high number of spot-forming units |  | Restriction element [2]: Human Leukocyte Antigen-DR17 molecule; Restriction element ([2]; listed as HPV 16 E7 58-68): Human Leukocyte Antigen-DR17 molecule; Restriction element ([2]; listed as novel CD4 T-cell epitope): Human Leukocyte Antigen-DR 17 molecule; Restriction element ([2]; listed as novel HPV 16 E7 CD4 T-cell epitope): Human Leukocyte Antigen-DR17 molecule; Number of spot-forming units with serially diluted peptides [1]: equivalent numbers of spot forming units; also recorded: equivalent numbers of spot-forming units
3 | CKCDSTLRLC (E7 59-68 peptide from immunodominant epitope region of Human Papilloma Virus 16 E7 protein) | Equally large numbers of spot-forming units; also recorded: equally high number of spot-forming units |  | Response (spot-forming units) among the six overlapping 10-mer peptides [1]: strongest responses; also recorded: highest number of spot-forming units; Number of spot-forming units with serially diluted peptides [1]: equivalent numbers of spot forming units; also recorded: equivalent numbers of spot-forming units
4 | E6 43-57: previously described HPV 18 E6 CD4 epitope (EVFEFAFKDLFVVYR; UniProt P06463 43-57, looked up, fragment) |  | Human Leukocyte Antigen-DRB1*15 | 
5 | E6 127-141: previously described HPV 16 E6 CD4 epitope (DKKQRFHNIRGRWTG; UniProt P03126 127-141, looked up, fragment) |  | Human Leukocyte Antigen-DRB1*01 | 
6 | E7 35-50: previously described Human Papilloma virus-specific CD4 T-cell epitope of the E7 protein (EDEIDGPAGQAEPDRA; UniProt P03129 35-50, looked up, fragment) |  | Human Leukocyte Antigen-DQ2 | 
7 | E7 43-77: previously described Human Papilloma virus-specific CD4 T-cell epitope of the E7 protein (GQAEPDRAHYNIVTFCCKCDSTLRLCVQSTHVDIR; UniProt P03129 43-77, looked up, fragment) |  | Human Leukocyte Antigen-DR3 | 
8 | E7 50-62: previously described Human Papilloma virus-specific CD4 T-cell epitope of the E7 protein (AHYNIVTFCCKCD; UniProt P03129 50-62, looked up, fragment) |  | Human Leukocyte Antigen-DR15 | 
9 | E7 59-67: 9-mer peptide of HPV 16 E7 contained in the 11-mer E7 58-68 (CKCDSTLRL; UniProt P03129 59-67, looked up, fragment) | negative repeatedly |  | 
10 | E7 60-68: 9-mer peptide of HPV 16 E7 contained in the 11-mer E7 58-68 (KCDSTLRLC; UniProt P03129 60-68, looked up, fragment) | negative repeatedly |  | 
11 | E7 61-80: previously described Human Papilloma virus-specific CD4 T-cell epitope of the E7 protein (CDSTLRLCVQSTHVDIRTLE; UniProt P03129 61-80, looked up, fragment) |  | Human Leukocyte Antigen-DR9 | 
12 | EPDRAHYNIVTFCCKCDSTLRLCVQ (E7 46-70 peptide from immunodominant epitope region of Human Papilloma Virus 16 E7 protein) [HPV type 16 E7 46-70] |  |  | Restriction element [2]: Human Leukocyte Antigen major histocompatibility complex class II molecule
13 | HPV 16 E7 71-85: previously described HPV 16 E7 epitope, 15 amino acids long (STHVDIRTLEDLLMG; UniProt P03129 71-85, looked up, fragment) |  | Human Leukocyte Antigen-DQB1*02 | 
14 | LEDLLMGTL (E7 79-87 control peptide from immunodominant epitope region of Human Papilloma Virus 16 E7 protein) [HPV 16 E7 79-87] |  | Human Leukocyte Antigen-B69 | 
15 | E7 protein: recombinant HPV 16 E7 protein pulsed to autologous mature dendritic cells (protein) MHGDTPTLHEYMLDLQPETTDLYCYEQLNDSSEEEDEIDGPAGQAEPDRAHYNIVTFCCKCDSTLRLCVQSTHVDIRTLEDLLMGTLGIVCPICSQKP |  |  | Response (interferon-γ secretion) of T-cell clones to pulsed autologous dendritic cells [4]: demonstrated interferon-γ secretion; also recorded: positive responses
